Holding throughout (format): cell-based
The target of assay [1] is T1, Protein cereblon/Tyrosine-protein kinase BTK (Homo sapiens, UniProt Q06187+Q96SW2). Briefly: PROTAC activity at CRBN/BTK in human Ramos cells assessed as hook effect at 10000 nM incubated for 24 hrs by Western blot analysis. (In western blotting, separated proteins are transferred to a membrane and probed.)
Target sequence in this assay (Q06187 2-659 limits assumed): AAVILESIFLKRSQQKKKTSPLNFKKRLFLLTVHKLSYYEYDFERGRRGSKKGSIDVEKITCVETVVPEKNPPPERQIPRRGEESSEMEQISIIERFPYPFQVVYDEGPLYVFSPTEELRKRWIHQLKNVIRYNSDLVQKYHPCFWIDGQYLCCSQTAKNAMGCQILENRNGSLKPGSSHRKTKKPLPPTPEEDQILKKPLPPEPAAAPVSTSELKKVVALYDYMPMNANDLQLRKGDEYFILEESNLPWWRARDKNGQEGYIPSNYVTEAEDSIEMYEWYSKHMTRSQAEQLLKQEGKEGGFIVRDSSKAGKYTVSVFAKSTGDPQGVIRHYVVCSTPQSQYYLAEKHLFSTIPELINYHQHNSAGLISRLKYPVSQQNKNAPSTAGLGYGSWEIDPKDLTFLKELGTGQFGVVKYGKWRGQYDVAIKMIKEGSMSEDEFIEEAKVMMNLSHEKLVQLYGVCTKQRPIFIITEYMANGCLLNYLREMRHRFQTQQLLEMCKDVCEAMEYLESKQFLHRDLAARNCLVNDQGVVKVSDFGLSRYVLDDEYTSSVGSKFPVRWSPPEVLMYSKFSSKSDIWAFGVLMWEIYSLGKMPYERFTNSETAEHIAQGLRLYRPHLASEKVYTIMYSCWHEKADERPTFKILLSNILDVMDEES
Target sequence in this assay (Q96SW2 whole entry partner): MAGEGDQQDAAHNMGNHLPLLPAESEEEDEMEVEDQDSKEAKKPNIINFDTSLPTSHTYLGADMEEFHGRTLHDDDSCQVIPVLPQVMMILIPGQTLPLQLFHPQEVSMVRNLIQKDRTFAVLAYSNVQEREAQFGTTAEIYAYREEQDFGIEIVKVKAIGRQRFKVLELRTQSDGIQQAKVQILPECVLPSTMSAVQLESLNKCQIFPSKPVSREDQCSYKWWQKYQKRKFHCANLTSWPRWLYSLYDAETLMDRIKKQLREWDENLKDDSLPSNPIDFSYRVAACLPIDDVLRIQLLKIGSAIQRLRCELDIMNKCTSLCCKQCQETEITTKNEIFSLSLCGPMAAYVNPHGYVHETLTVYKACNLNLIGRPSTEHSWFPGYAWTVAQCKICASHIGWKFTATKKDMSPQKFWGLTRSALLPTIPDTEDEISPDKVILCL
In assay [2] the target is T1, Protein cereblon/Tyrosine-protein kinase BTK. The assay is described as follows: PROTAC activity at CRBN/BTK in human Ramos cells assessed as induction of BTK degradation at 100 nM pretreated with pomalidomide for 2 hrs followed by compound treatment and measured after 8 hrs by Western blot analysis.
Target sequence in this assay (Q06187 2-659 limits assumed): as the sequence (Q06187 2-659 limits assumed) above
Target sequence in this assay (Q96SW2 whole entry partner): as the sequence (Q96SW2 whole entry partner) above
The target is the same in assay [3]. Briefly: PROTAC activity at CRBN/BTK in human Ramos cells assessed as induction of BTK degradation at 100 nM pretreated with bafilomycin for 2 hrs followed by compound treatment and measured after 8 hrs by Western blot analysis.
Target sequence in this assay (Q06187 2-659 limits assumed): as the sequence (Q06187 2-659 limits assumed) above
Target sequence in this assay (Q96SW2 whole entry partner): as the sequence (Q96SW2 whole entry partner) above
Assay [4] has the same target. Briefly: PROTAC activity at CRBN/BTK in human MINO cells assessed as hook effect upto 10000 nM incubated for 24 hrs by Western blot analysis.
Target sequence in this assay (Q06187 2-659 limits assumed): as the sequence (Q06187 2-659 limits assumed) above
Target sequence in this assay (Q96SW2 whole entry partner): as the sequence (Q96SW2 whole entry partner) above
Assay [5] has the same target. The assay is described as follows: PROTAC activity at CRBN/BTK in human MINO cells assessed as induction of BTK degradation by measuring maximal efficacy incubated for 24 hrs by Western blot analysis relative to control.
Target sequence in this assay (Q06187 2-659 limits assumed): as the sequence (Q06187 2-659 limits assumed) above
Target sequence in this assay (Q96SW2 whole entry partner): as the sequence (Q96SW2 whole entry partner) above
Assay [6] has the same target. The assay is described as follows: PROTAC activity at CRBN/BTK in human Ramos cells assessed as induction of BTK degradation at 100 nM measured within 4 hrs by Western blot analysis.
Target sequence in this assay (Q06187 2-659 limits assumed): as the sequence (Q06187 2-659 limits assumed) above
Target sequence in this assay (Q96SW2 whole entry partner): as the sequence (Q96SW2 whole entry partner) above
For assay [7] the target is unchanged. Briefly: PROTAC activity at CRBN/BTK in human Ramos cells assessed as induction of BTK degradation incubated for 24 hrs by Western blot analysis.
Target sequence in this assay (Q06187 whole entry): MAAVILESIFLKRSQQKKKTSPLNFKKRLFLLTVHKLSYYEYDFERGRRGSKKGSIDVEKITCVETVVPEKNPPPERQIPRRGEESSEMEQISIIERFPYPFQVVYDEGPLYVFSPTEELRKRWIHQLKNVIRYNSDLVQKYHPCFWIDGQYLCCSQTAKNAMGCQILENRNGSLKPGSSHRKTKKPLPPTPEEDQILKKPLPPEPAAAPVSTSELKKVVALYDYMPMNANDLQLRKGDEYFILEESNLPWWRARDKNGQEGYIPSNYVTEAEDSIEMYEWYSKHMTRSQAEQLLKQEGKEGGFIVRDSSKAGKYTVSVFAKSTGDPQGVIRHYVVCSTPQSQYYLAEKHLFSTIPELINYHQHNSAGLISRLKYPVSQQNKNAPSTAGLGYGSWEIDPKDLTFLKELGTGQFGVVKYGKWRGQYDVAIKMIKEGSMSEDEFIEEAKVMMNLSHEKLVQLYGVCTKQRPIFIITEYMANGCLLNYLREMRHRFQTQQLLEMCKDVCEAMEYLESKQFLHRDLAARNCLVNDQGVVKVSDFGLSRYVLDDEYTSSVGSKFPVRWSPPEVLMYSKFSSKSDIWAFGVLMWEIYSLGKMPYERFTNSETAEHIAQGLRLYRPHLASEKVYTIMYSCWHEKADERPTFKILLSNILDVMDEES
Target sequence in this assay (Q96SW2 whole entry): as the sequence (Q96SW2 whole entry partner) above
The target is the same in assay [8]. Briefly: PROTAC activity at CRBN/BTK in human Ramos cells assessed as induction of BTK degradation at 100 nM incubated for 24 hrs by Western blot analysis relative to control.
For assay [9] the target is unchanged. Briefly: PROTAC activity at CRBN/BTK in human MINO cells assessed as induction of BTK degradation incubated for 24 hrs by Western blot analysis.
Target sequence in this assay (Q06187 whole entry): as the sequence (Q06187 whole entry) above
Target sequence in this assay (Q96SW2 whole entry): as the sequence (Q96SW2 whole entry partner) above
Assay [10] shares this target. The assay is described as follows: PROTAC activity at CRBN/BTK in human Ramos cells assessed as induction of BTK degradation by measuring maximal efficacy incubated for 24 hrs by Western blot analysis relative to control.
Assay [11] has the same target. The assay is described as follows: PROTAC activity at CRBN/BTK in human Ramos cells assessed as induction of BTK degradation at 100 nM pretreated with ibrutinib for 2 hrs followed by compound treatment and measured after 8 hrs by Western blot analysis.
Assay [12] shares this target. The assay is described as follows: PROTAC activity at CRBN/BTK in human Ramos cells assessed as induction of BTK degradation at 100 nM pretreated with MG132 for 2 hrs followed by compound treatment and measured after 8 hrs by Western blot analysis.
Assay [13] has the same target. Briefly: PROTAC activity at CRBN/BTK in human Ramos cells assessed as induction of BTK degradation at 100 nM measured after 8 hrs by Western blot analysis relative to control.
For assay [14] the target is unchanged. Briefly: PROTAC activity at CRBN/BTK in human Ramos cells assessed as induction of BTK degradation at 100 nM incubated for 24 hrs by Western blot analysis.
Assay [15] has the same target. Briefly: PROTAC activity at CRBN/BTK in human Ramos cells assessed as hook effect at 1000 nM incubated for 24 hrs by Western blot analysis.
For assay [16] the target is unchanged. Briefly: PROTAC activity at CRBN/BTK in human MINO cells assessed as hook effect at >10000 nM incubated for 24 hrs by Western blot analysis.

Activity calls are given as the source filed them. The rule behind the calls is not given here.

What is called Emax is the greatest response seen or fitted, relative to the assay's reference. Broadly, the EC50 is the concentration giving half of the maximal effect. As to `Nc1ncnc2c1c(-c1ccc(Oc3ccccc3)cc1)nn2C1CCN(C(=O)CN2CCN(CC3CCN(c4ccc5c(c4)C(=O)N(C4CCC(=O)NC4=O)C5=O)CC3)CC2)CC1` (centres undefined), the result in [1], in assay [2], in assay [4], in assay [11] and in assay [12] was inactive. Besides, the outcome in assay [3] and in assay [6] was Active. For the same compound, the Emax in assay [5] and in assay [10] was 99.7% throughout. Further, the concentration giving a half-maximal response (EC50) in [7] worked out at 6.11 nM; in [9], 2.93 nM. The Activity was 99.7% in assay [8] and 100% in [13].

As to `Nc1ncnc2c1c(-c1ccc(Oc3ccccc3)cc1)nn2C1CCN(CC2CN(CC3CN(c4ccc5c(c4)C(=O)N(C4CCC(=O)NC4=O)C5=O)C3)C2)CC1` (centres undefined), the Activity in [8] was determined as 31.5%.

For `Nc1ncnc2c1c(-c1ccc(Oc3ccccc3)cc1)nn2C1CCN(Cc2ccc(C#CC3CCN(c4cccc5c4C(=O)N(C4CCC(=O)NC4=O)C5=O)CC3)nc2)CC1` (centres undefined), the result in assay [1] was Active. The 50% effective concentration (EC50) in assay [7] came out at 46.1 nM. Further, the Activity in assay [8] turned out to be 58.6%. In addition, the Emax in assay [10] came out at 95%.

Consider `Nc1ncnc2c1c(-c1ccc(Oc3ccccc3)cc1)nn2C1CCN(C(=O)CN2CCC(N3CCN(CC#Cc4ccc5c(c4)C(=O)N(C4CCC(=O)NC4=O)C5=O)CC3)CC2)CC1` (centres undefined), for which the Activity in [8] worked out at 57.8%.

With `Nc1ncnc2c1c(-c1ccc(Oc3ccccc3)cc1)nn2C1CCN(C(=O)CCCN2CCN(CCOCC(=O)Nc3ccc4c(c3)C(=O)N(C3CCC(=O)NC3=O)C4=O)CC2)CC1` (centres undefined), the Activity in [8] came out at 40%.

In the case of `Nc1ncnc2c1c(-c1ccc(Oc3ccccc3)cc1)nn2C1CCN(CC2CN(c3cccc4c3C(=O)N(C3CCC(=O)NC3=O)C4=O)C2)CC1` (centres undefined), in [14], the result was inactive.

In the case of `Nc1ncnc2c1c(-c1ccc(Oc3ccccc3)cc1)nn2C1CCN(C(=O)CN2CCN(CC3CN(c4cccc5c4C(=O)N(C4CCC(=O)NC4=O)C5=O)C3)CC2)CC1` (centres undefined), the result in assay [15] and in [16] was Active. In addition, the results for the Emax in [5] and in assay [10] were 99.7% and 97.6%, respectively. Also, the EC50 in [7] stood at 7.27 nM; in [9], 9.06 nM. Also, the Activity in [8] was determined as 67.5%.

`Nc1ncnc2c1c(-c1ccc(Oc3ccccc3)cc1)nn2C1CCN(CC2CN(CC3CCN(c4cccc5c4C(=O)N(C4CCC(=O)NC4=O)C5=O)CC3)C2)CC1` (centres undefined): in assay [8], the Activity worked out at 36.2%.

`Nc1ncnc2c1c(-c1ccc(Oc3ccccc3)cc1)nn2C1CCN(CC2CN(CC3CN(c4cccc5c4C(=O)N(C4CCC(=O)NC4=O)C5=O)C3)C2)CC1` (centres undefined): the Activity in assay [8] worked out at 31.3%.

As for `Nc1ncnc2c1c(-c1ccc(Oc3ccccc3)cc1)nn2C1CCN(C(=O)CN2CCN(C(=O)CCC(=O)Nc3ccc4c(c3)C(=O)N(C3CCC(=O)NC3=O)C4=O)CC2)CC1` (centres undefined), the Activity in assay [8] was determined as 61.5%.

Consider `Nc1ncnc2c1c(-c1ccc(Oc3ccccc3)cc1)nn2C1CCN(C(=O)c2ccc(N3CCN(CC#Cc4ccc5c(c4)C(=O)N(C4CCC(=O)NC4=O)C5=O)CC3)nc2)CC1` (centres undefined), for which the Activity in assay [8] stood at 47.4%.

Take `Nc1ncnc2c1c(-c1ccc(Oc3ccccc3)cc1)nn2C1CCN(C(=O)CN2CCN(CCOCCOCC(=O)Nc3ccc4c(c3)C(=O)N(C3CCC(=O)NC3=O)C4=O)CC2)CC1` (centres undefined): the Activity in assay [8] was 38.9%.

Take `Nc1ncnc2c1c(-c1ccc(Oc3ccccc3)cc1)nn2C1CCN(Cc2ccc(C#CC3CCN(c4ccc5c(c4)C(=O)N(C4CCC(=O)NC4=O)C5=O)CC3)nc2)CC1` (centres undefined): the outcome in assay [1] was Active. Further, the concentration for a half-maximal effect (EC50) in [7] is 51.1 nM. Also, the Activity in [8] was 62.7%. For the same compound, the Emax in [10] turned out to be 97.8%.

`Nc1ncnc2c1c(-c1ccc(Oc3ccccc3)cc1)nn2C1CCN(C(=O)CN2CCN(CC#Cc3ccc4c(c3)C(=O)N(C3CCC(=O)NC3=O)C4=O)CC2)CC1` (centres undefined): in assay [8], the Activity is 39.5%.

In the case of `Nc1ncnc2c1c(-c1ccc(Oc3ccccc3)cc1)nn2C1CCN(C(=O)CN2CCN(C(=O)CCCC(=O)Nc3ccc4c(c3)C(=O)N(C3CCC(=O)NC3=O)C4=O)CC2)CC1` (centres undefined), the Activity in assay [8] was 61.9%.

In the case of `Nc1ncnc2c1c(-c1ccc(Oc3ccccc3)cc1)nn2C1CCN(C(=O)CCCN2CCN(C(=O)CCC(=O)Nc3ccc4c(c3)C(=O)N(C3CCC(=O)NC3=O)C4=O)CC2)CC1` (centres undefined), the Activity in assay [8] was determined as 41.8%.

On to `Nc1ncnc2c1c(-c1ccc(Oc3ccccc3)cc1)nn2C1CCN(C(=O)c2ccc(N3CCN(c4ccc5c(c4)C(=O)N(C4CCC(=O)NC4=O)C5=O)CC3)nc2)CC1` (centres undefined), for which, in assay [1], the outcome was Active. In assay [7], the EC50 amounted to 26.9 nM. Besides, the Activity in assay [8] worked out at 71.7%. For the same compound, in [10], the Emax amounted to 97.8%.

With `Nc1ncnc2c1c(-c1ccc(Oc3ccccc3)cc1)nn2C1CCN(C(=O)CN2CCC(CN3CCN(CC#Cc4ccc5c(c4)C(=O)N(C4CCC(=O)NC4=O)C5=O)CC3)CC2)CC1` (centres undefined), the Activity in assay [8] was 33.6%.

As for `Nc1ncnc2c1c(-c1ccc(Oc3ccccc3)cc1)nn2C1CCN(C(=O)CN2CCN(CCOCC(=O)Nc3ccc4c(c3)C(=O)N(C3CCC(=O)NC3=O)C4=O)CC2)CC1` (centres undefined), the Activity in assay [8] is 28.5%.

Take `Nc1ncnc2c1c(-c1ccc(Oc3ccccc3)cc1)nn2C1CCN(C(=O)CN2CCN(CC3CCN(c4cccc5c4C(=O)N(C4CCC(=O)NC4=O)C5=O)CC3)CC2)CC1` (centres undefined): the outcome in [1], in [15] and in [16] was Active. The maximal response (Emax) in assay [5] worked out at 99.5%; in assay [10], 99.4%. The EC50 in [7] was found to be 9.37 nM; in assay [9] it was 10.3 nM. Also, the Activity in assay [8] amounted to 91%.

As for `Nc1ncnc2c1c(-c1ccc(Oc3ccccc3)cc1)nn2C1CCN(CCOCCOCC(=O)Nc2ccc3c(c2)C(=O)N(C2CCC(=O)NC2=O)C3=O)CC1` (centres undefined), the EC50 in [7] came out at 63.3 nM. The Activity in [8] stood at 75.7%. Also, the maximal effect (Emax) in [10] came to 92.4%.

For `Nc1ncnc2c1c(-c1ccc(Oc3ccccc3)cc1)nn2C1CCN(CC2CCN(c3cccc4c3C(=O)N(C3CCC(=O)NC3=O)C4=O)CC2)CC1` (centres undefined), in [14], the outcome was inactive.

On to `Nc1ncnc2c1c(-c1ccc(Oc3ccccc3)cc1)nn2C1CCN(C(=O)CCCN2CCN(CCOCCOCC(=O)Nc3ccc4c(c3)C(=O)N(C3CCC(=O)NC3=O)C4=O)CC2)CC1` (centres undefined), for which, in [8], the Activity amounted to 55%.

Values taken from ChEMBL document CHEMBL5625192, “Discovery of Ibrutinib-based BTK PROTACs with in vivo anti-inflammatory efficacy by inhibiting NF-κB activation” (Eur J Med Chem, 2023).
